Data published in publication PMC10175095 (Therapeutic drug monitoring, 2023).
Each block holds one compound with its values, some of them ahead of it.

Experiments:
[1] = Pre-processed stability in human plasma; assay type: in vitro ADME; conditions: 2.5 h
[2] = Reinjection stability in final extract; assay type: physicochemical; conditions: reinjected, 4°C, autosampler, 25.95 h
[3] = Processed sample stability in final extract; assay type: physicochemical; conditions: 4°C, autosampler, 25.1 h
[4] = Freeze-thaw stability of unprocessed plasma samples; assay type: in vitro ADME; conditions: human plasma, 3 freeze (-80°C)-thaw cycles
[5] = Long-term stability of unprocessed plasma samples at −80°C; assay type: in vitro ADME; conditions: human plasma
[6] = major systemic metabolite; cited from earlier work
[7] = test system: CDK4/6; conditions: compared with abemaciclib; cited from earlier work
[8] = requires confirmation in prospective studies; cited from earlier work
[9] = RT (20–25°C), yellow light, nominal 15 ng/mL
[10] = RT (20–25°C), yellow light, nominal 1500 ng/mL

Accuracy vs fresh QCs ([1]; 37°C, dark, nominal 15 ng/mL): 95.8% | Accuracy vs. nominal concentration ([1]; 37°C, dark, nominal 15 ng/mL): 101% | Mean measured concentration ([1]; 37°C, dark, nominal 15 ng/mL): 15.1 ng/mL | Accuracy vs fresh QCs ([1]; 37°C, dark, nominal 1500 ng/mL): 103% | Accuracy vs. nominal concentration ([1]; 37°C, dark, nominal 1500 ng/mL): 103% | Mean measured concentration ([1]; 37°C, dark, nominal 1500 ng/mL): 1540 ng/mL | Accuracy vs fresh QCs [1, 9]: 96.6% | Accuracy vs. nominal concentration [1, 9]: 102% | Mean measured concentration [1, 9]: 15.3 ng/mL | Accuracy vs fresh QCs [1, 10]: 104% | Accuracy vs. nominal concentration [1, 10]: 104% | Mean measured concentration [1, 10]: 1557 ng/mL | Accuracy vs fresh QCs ([2]; nominal 15 ng/mL): 103% | Accuracy vs. nominal concentration ([2]; nominal 15 ng/mL): 113% | Mean measured concentration ([2]; nominal 15 ng/mL): 16.9 ng/mL | Accuracy vs fresh QCs ([2]; nominal 150 ng/mL): 96.5% | Accuracy vs. nominal concentration ([2]; nominal 150 ng/mL): 104% | Mean measured concentration ([2]; nominal 150 ng/mL): 155 ng/mL | Accuracy vs fresh QCs ([2]; nominal 1500 ng/mL): 103% | Accuracy vs. nominal concentration ([2]; nominal 1500 ng/mL): 104% | Mean measured concentration ([2]; nominal 1500 ng/mL): 1557 ng/mL | Accuracy vs fresh QCs ([3]; nominal 15 ng/mL): 100% | Accuracy vs. nominal concentration ([3]; nominal 15 ng/mL): 110% | Mean measured concentration ([3]; nominal 15 ng/mL): 16.5 ng/mL | Accuracy vs fresh QCs ([3]; nominal 1500 ng/mL): 102% | Accuracy vs. nominal concentration ([3]; nominal 1500 ng/mL): 102% | Mean measured concentration ([3]; nominal 1500 ng/mL): 1537 ng/mL | Accuracy vs fresh QCs ([4]; nominal 15 ng/mL): 98.2% | Accuracy vs. nominal concentration ([4]; nominal 15 ng/mL): 100% | Mean measured concentration ([4]; nominal 15 ng/mL): 15.0 ng/mL | Accuracy vs fresh QCs ([4]; nominal 1500 ng/mL): 98.2% | Accuracy vs. nominal concentration ([4]; nominal 1500 ng/mL): 99.6% | Mean measured concentration ([4]; nominal 1500 ng/mL): 1493 ng/mL | Accuracy vs fresh QCs ([5]; 3 months, nominal 15 ng/mL): 107% | Accuracy vs. nominal concentration ([5]; 3 months, nominal 15 ng/mL): 97.6% | Mean measured concentration ([5]; 3 months, nominal 15 ng/mL): 14.6 ng/mL | Accuracy vs fresh QCs ([5]; 3 months, nominal 150 ng/mL): 104% | Accuracy vs. nominal concentration ([5]; 3 months, nominal 150 ng/mL): 100% | Mean measured concentration ([5]; 3 months, nominal 150 ng/mL): 150 ng/mL | Accuracy vs fresh QCs ([5]; 3 months, nominal 1500 ng/mL): 98.7% | Accuracy vs. nominal concentration ([5]; 3 months, nominal 1500 ng/mL): 100% | Mean measured concentration ([5]; 3 months, nominal 1500 ng/mL): 1503 ng/mL | Accuracy vs fresh QCs ([5]; 7 months, nominal 15 ng/mL): 102% | Accuracy vs. nominal concentration ([5]; 7 months, nominal 15 ng/mL): 96.9% | Mean measured concentration ([5]; 7 months, nominal 15 ng/mL): 14.5 ng/mL | Accuracy vs fresh QCs ([5]; 7 months, nominal 150 ng/mL): 92.4% | Accuracy vs. nominal concentration ([5]; 7 months, nominal 150 ng/mL): 102% | Mean measured concentration ([5]; 7 months, nominal 150 ng/mL): 154 ng/mL | Accuracy vs fresh QCs ([5]; 7 months, nominal 1500 ng/mL): 93.8% | Accuracy vs. nominal concentration ([5]; 7 months, nominal 1500 ng/mL): 93.6% | Mean measured concentration ([5]; 7 months, nominal 1500 ng/mL): 1403 ng/mL | Accuracy vs fresh QCs ([5]; 12 months, nominal 15 ng/mL): 111% | Accuracy vs. nominal concentration ([5]; 12 months, nominal 15 ng/mL): 101% | Mean measured concentration ([5]; 12 months, nominal 15 ng/mL): 15.1 ng/mL | Accuracy vs fresh QCs ([5]; 12 months, nominal 150 ng/mL): 95.6% | Accuracy vs. nominal concentration ([5]; 12 months, nominal 150 ng/mL): 110% | Mean measured concentration ([5]; 12 months, nominal 150 ng/mL): 166 ng/mL | Accuracy vs fresh QCs ([5]; 12 months, nominal 1500 ng/mL): 96.8% | Accuracy vs. nominal concentration ([5]; 12 months, nominal 1500 ng/mL): 104% | Mean measured concentration ([5]; 12 months, nominal 1500 ng/mL): 1567 ng/mL
Structure (SMILES): Cc1nc2c(F)cc(-c3nc(Nc4ccc(CN5CCNCC5)cn4)ncc3F)cc2n1C(C)C [Abemaciclib-M2]
Share of the total circulating analytes in plasma [6]: 25% | Pharmacological potency vs parent drug [7]: equipotent

Accuracy vs fresh QCs ([1]; 37°C, dark, nominal 15 ng/mL): 97.8% | Accuracy vs. nominal concentration ([1]; 37°C, dark, nominal 15 ng/mL): 106% | Mean measured concentration ([1]; 37°C, dark, nominal 15 ng/mL): 15.9 ng/mL | Accuracy vs fresh QCs ([1]; 37°C, dark, nominal 1500 ng/mL): 102% | Accuracy vs. nominal concentration ([1]; 37°C, dark, nominal 1500 ng/mL): 100% | Mean measured concentration ([1]; 37°C, dark, nominal 1500 ng/mL): 1500 ng/mL | Accuracy vs fresh QCs [1, 9]: 98.0% | Accuracy vs. nominal concentration [1, 9]: 106% | Mean measured concentration [1, 9]: 15.9 ng/mL | Accuracy vs fresh QCs [1, 10]: 102% | Accuracy vs. nominal concentration [1, 10]: 100% | Mean measured concentration [1, 10]: 1503 ng/mL | Accuracy vs fresh QCs ([2]; nominal 15 ng/mL): 97.8% | Accuracy vs. nominal concentration ([2]; nominal 15 ng/mL): 110% | Mean measured concentration ([2]; nominal 15 ng/mL): 16.5 ng/mL | Accuracy vs fresh QCs ([2]; nominal 150 ng/mL): 101% | Accuracy vs. nominal concentration ([2]; nominal 150 ng/mL): 107% | Mean measured concentration ([2]; nominal 150 ng/mL): 161 ng/mL | Accuracy vs fresh QCs ([2]; nominal 1500 ng/mL): 101% | Accuracy vs. nominal concentration ([2]; nominal 1500 ng/mL): 100% | Mean measured concentration ([2]; nominal 1500 ng/mL): 1503 ng/mL | Accuracy vs fresh QCs ([3]; nominal 15 ng/mL): 99.2% | Accuracy vs. nominal concentration ([3]; nominal 15 ng/mL): 112% | Mean measured concentration ([3]; nominal 15 ng/mL): 16.7 ng/mL | Accuracy vs fresh QCs ([3]; nominal 1500 ng/mL): 99.8% | Accuracy vs. nominal concentration ([3]; nominal 1500 ng/mL): 98.7% | Mean measured concentration ([3]; nominal 1500 ng/mL): 1480 ng/mL | Accuracy vs fresh QCs ([4]; nominal 15 ng/mL): 98.3% | Accuracy vs. nominal concentration ([4]; nominal 15 ng/mL): 100% | Mean measured concentration ([4]; nominal 15 ng/mL): 15.0 ng/mL | Accuracy vs fresh QCs ([4]; nominal 1500 ng/mL): 97.1% | Accuracy vs. nominal concentration ([4]; nominal 1500 ng/mL): 97.1% | Mean measured concentration ([4]; nominal 1500 ng/mL): 1457 ng/mL | Accuracy vs fresh QCs ([5]; 3 months, nominal 15 ng/mL): 106% | Accuracy vs. nominal concentration ([5]; 3 months, nominal 15 ng/mL): 102% | Mean measured concentration ([5]; 3 months, nominal 15 ng/mL): 15.3 ng/mL | Accuracy vs fresh QCs ([5]; 3 months, nominal 150 ng/mL): 105% | Accuracy vs. nominal concentration ([5]; 3 months, nominal 150 ng/mL): 98.7% | Mean measured concentration ([5]; 3 months, nominal 150 ng/mL): 148 ng/mL | Accuracy vs fresh QCs ([5]; 3 months, nominal 1500 ng/mL): 104% | Accuracy vs. nominal concentration ([5]; 3 months, nominal 1500 ng/mL): 94.2% | Mean measured concentration ([5]; 3 months, nominal 1500 ng/mL): 1413 ng/mL | Accuracy vs fresh QCs ([5]; 7 months, nominal 15 ng/mL): 90.3% | Accuracy vs. nominal concentration ([5]; 7 months, nominal 15 ng/mL): 98.4% | Mean measured concentration ([5]; 7 months, nominal 15 ng/mL): 14.8 ng/mL | Accuracy vs fresh QCs ([5]; 7 months, nominal 150 ng/mL): 86.0% | Accuracy vs. nominal concentration ([5]; 7 months, nominal 150 ng/mL): 106% | Mean measured concentration ([5]; 7 months, nominal 150 ng/mL): 160 ng/mL | Accuracy vs fresh QCs ([5]; 7 months, nominal 1500 ng/mL): 88.8% | Accuracy vs. nominal concentration ([5]; 7 months, nominal 1500 ng/mL): 93.6% | Mean measured concentration ([5]; 7 months, nominal 1500 ng/mL): 1403 ng/mL | Accuracy vs fresh QCs ([5]; 12 months, nominal 15 ng/mL): 107% | Accuracy vs. nominal concentration ([5]; 12 months, nominal 15 ng/mL): 105% | Mean measured concentration ([5]; 12 months, nominal 15 ng/mL): 15.7 ng/mL | Accuracy vs fresh QCs ([5]; 12 months, nominal 150 ng/mL): 105% | Accuracy vs. nominal concentration ([5]; 12 months, nominal 150 ng/mL): 108% | Mean measured concentration ([5]; 12 months, nominal 150 ng/mL): 161 ng/mL | Accuracy vs fresh QCs ([5]; 12 months, nominal 1500 ng/mL): 101% | Accuracy vs. nominal concentration ([5]; 12 months, nominal 1500 ng/mL): 108% | Mean measured concentration ([5]; 12 months, nominal 1500 ng/mL): 1613 ng/mL
Structure (SMILES): CN(C)C(=O)c1cc2cnc(Nc3ccc(N4CCNCC4)cn3)nc2n1C1CCCC1 [Ribociclib, ribociclib]
Proposed target Cmin for TDM [8]: 711 ng/mL
